Test results published in PubChem BioAssay AID256 (DTP/NCI, 2004).
Where “and” joins values, the source holds several entries; their conditions need not be identical. Identical values can stand only once. Toxic doses and inconclusive results are not listed.

System: CD2F1 mice, L1210 leukemia ip, survival T/C
Experiment: NCI In Vivo Anticancer Drug Screen. Data for tumor model L1210 Leukemia (intraperitoneal) in CD2F1 (CDF1) mice
Settings: higher = longer survival
Summary of the method: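 Ratio T/C, where T is the treated-group value and C the vehicle-dosed control value, from mice implanted with a transplantable tumor.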

[1] = endpoint: mean survival time, dose: 12.5 mg/kg/injection, schedule: Q01DX005 (ip), vehicle: distilled water + Tween-80
[2] = endpoint: mean survival time, dose: 25.0 mg/kg/injection, schedule: Q01DX005 (ip), vehicle: distilled water + Tween-80
[3] = endpoint: mean survival time, dose: 50.0 mg/kg/injection, schedule: Q01DX005 (ip), vehicle: distilled water + Tween-80
[4] = endpoint: mean survival time, dose: 100.0 mg/kg/injection, schedule: Q01DX005 (ip), vehicle: distilled water + Tween-80
[5] = endpoint: mean survival time, dose: 200.0 mg/kg/injection, schedule: Q01DX005 (ip), vehicle: distilled water + Tween-80
[6] = endpoint: mean survival time, dose: 100.0 mg/kg/injection, schedule: Q04DX003 (ip), vehicle: saline with Tween-80
[7] = endpoint: mean survival time, dose: 200.0 mg/kg/injection, schedule: Q04DX003 (ip), vehicle: saline with Tween-80
[8] = endpoint: mean survival time, dose: 400.0 mg/kg/injection, schedule: Q04DX003 (ip), vehicle: saline with Tween-80
[9] = endpoint: mean survival time, dose: 100.0 mg/kg/injection, schedule: Q01DX001 (ip), vehicle: saline
[10] = endpoint: mean survival time, dose: 200.0 mg/kg/injection, schedule: Q01DX001 (ip), vehicle: saline
[11] = endpoint: mean survival time, dose: 400.0 mg/kg/injection, schedule: Q01DX001 (ip), vehicle: saline
[12] = endpoint: mean survival time, dose: 50.0 mg/kg/injection, schedule: Q01DX009 (ip), vehicle: saline with Tween-80
[13] = endpoint: mean survival time, dose: 100.0 mg/kg/injection, schedule: Q01DX009 (ip), vehicle: saline with Tween-80
[14] = endpoint: mean survival time, dose: 200.0 mg/kg/injection, schedule: Q01DX009 (ip), vehicle: saline with Tween-80
[15] = endpoint: mean survival time, dose: 100.0 mg/kg/injection, schedule: Q01DX001 (ip), vehicle: saline with Tween-80
[16] = endpoint: mean survival time, dose: 200.0 mg/kg/injection, schedule: Q01DX001 (ip), vehicle: saline with Tween-80
[17] = endpoint: mean survival time, dose: 400.0 mg/kg/injection, schedule: Q01DX001 (ip), vehicle: saline with Tween-80
[18] = endpoint: mean survival time, dose: 400.0 mg/kg/injection, schedule: Q01DX009 (ip), vehicle: saline with Tween-80
[19] = endpoint: mean survival time, dose: 12.5 mg/kg/injection, schedule: Q01DX009 (ip), vehicle: saline with Tween-80
[20] = endpoint: mean survival time, dose: 25.0 mg/kg/injection, schedule: Q01DX009 (ip), vehicle: saline with Tween-80

SMILES: N#CC(C#N)=C1Cc2ccccc2C1
- T/C (endpoint: mean survival time, dose: 12.5 mg/kg/injection, schedule: Q04DX003 (ip), vehicle: saline with Tween-80): 93 % of control
- T/C (endpoint: mean survival time, dose: 25.0 mg/kg/injection, schedule: Q04DX003 (ip), vehicle: saline with Tween-80): 100 % of control
- T/C (endpoint: mean survival time, dose: 50.0 mg/kg/injection, schedule: Q04DX003 (ip), vehicle: saline with Tween-80): 94 % of control

SMILES: C#CCN(C)CCO
- T/C (endpoint: mean survival time, dose: 100.0 mg/kg/injection, schedule: Q01DX009 (ip), vehicle: acetone): 103 % of control
- T/C (endpoint: mean survival time, dose: 200.0 mg/kg/injection, schedule: Q01DX009 (ip), vehicle: acetone): 97 % of control
- T/C (endpoint: mean survival time, dose: 400.0 mg/kg/injection, schedule: Q01DX009 (ip), vehicle: acetone): 100 % of control

SMILES: CCn1c(=O)c2c(nc(Cl)n2C2OC(COC(C)=O)C(OC(C)=O)C(OC(C)=O)C2NC(C)=O)n(CC)c1=O (centres undefined)
- T/C [1]: 98 % of control
- T/C [2]: 97 % of control
- T/C [3]: 97 % of control
- T/C [4]: 95 % of control
- T/C [5]: 97 % of control

SMILES: c1ccc(N=Nc2n[nH]c3ccccc23)cc1
- T/C [6]: 95 % of control
- T/C [7]: 98 % of control
- T/C [8]: 95 % of control

SMILES: CCC1(c2ccc(O)cc2)C(=O)NC(=O)NC1=O
- T/C [9]: 96 % of control
- T/C [10]: 89 % of control
- T/C [11]: 96 % of control

SMILES: Cc1cccc(CN(C)C)n1
- T/C (endpoint: mean survival time, dose: 100.0 mg/kg/injection, schedule: Q04DX002 (ip), vehicle: saline): 105 % of control

SMILES: O=C(/C=C\c1ccc(/C=C/C(=O)Nc2cccc(C3=NCCCN3)c2)cc1)Nc1cccc(C2=NCCCN2)c1
- T/C (endpoint: median survival time, dose: 5.0 mg/kg/injection, schedule: Q01DX009 (ip), vehicle: Klucel (hydroxypropylcellulose) (HPC)): 175 % of control and 196 % of control
- T/C (endpoint: median survival time, dose: 10.0 mg/kg/injection, schedule: Q01DX009 (ip), vehicle: Klucel (hydroxypropylcellulose) (HPC)): 185 % of control and 250 % of control
- T/C (endpoint: median survival time, dose: 20.0 mg/kg/injection, schedule: Q01DX009 (ip), vehicle: Klucel (hydroxypropylcellulose) (HPC)): 113 % of control

SMILES: Nc1ccc2[nH]c(=S)sc2c1
- T/C [6]: 94 % of control
- T/C [7]: 92 % of control
- T/C [8]: 90 % of control

SMILES: OCC1OC(n2nnc3cc[nH]c(=S)c32)C(O)C1O (centres undefined)
- T/C (endpoint: mean survival time, dose: 11.9 mg/kg/injection, schedule: Q01DX005 (ip), vehicle: water): 96 % of control
- T/C (endpoint: mean survival time, dose: 23.8 mg/kg/injection, schedule: Q01DX005 (ip), vehicle: water): 113 % of control

SMILES: Nc1nc(Nc2ccc(C(=O)O)cc2)n[nH]1
- T/C (endpoint: mean survival time, dose: 100.0 mg/kg/injection, schedule: Q01DX001 (ip), vehicle: saline sonified): 96 % of control
- T/C (endpoint: mean survival time, dose: 100.0 mg/kg/injection, schedule: Q01DX009 (ip), vehicle: saline sonified): 105 % of control
- T/C (endpoint: mean survival time, dose: 200.0 mg/kg/injection, schedule: Q01DX001 (ip), vehicle: saline sonified): 104 % of control
- T/C (endpoint: mean survival time, dose: 200.0 mg/kg/injection, schedule: Q01DX009 (ip), vehicle: saline sonified): 96 % of control
- T/C (endpoint: mean survival time, dose: 400.0 mg/kg/injection, schedule: Q01DX001 (ip), vehicle: saline sonified): 96 % of control
- T/C (endpoint: mean survival time, dose: 400.0 mg/kg/injection, schedule: Q01DX009 (ip), vehicle: saline sonified): 88 % of control

SMILES: Cc1ccc(Sc2ncnc3c2ncn3C2OC(CO)C(O)C2O)cc1 (centres undefined)
- T/C [1]: 96 % of control
- T/C [2]: 90 % of control
- T/C [3]: 94 % of control
- T/C [4]: 90 % of control
- T/C [5]: 94 % of control

SMILES: CC1(C#N)CCC(=O)N1 (centres undefined)
- T/C [9]: 95 % of control
- T/C [10]: 95 % of control
- T/C [11]: 93 % of control

SMILES: OC1CC2CC1C1C=CCC21 (centres undefined)
- T/C [12]: 95 % of control
- T/C [13]: 98 % of control
- T/C [6]: 93 % of control
- T/C [14]: 93 % of control
- T/C [7]: 93 % of control

SMILES: Cc1cc(=O)[nH]c2cc(Br)ccc12
- T/C [15]: 91 % of control
- T/C [16]: 89 % of control
- T/C [17]: 87 % of control

SMILES: CC(C)(C)OC(=O)NC(Cc1c[nH]c2ccccc12)C(=O)ON1C(=O)CCC1=O (centres undefined)
- T/C [6]: 95 % of control
- T/C [7]: 95 % of control

SMILES: CC1(C)C(C#N)C(=O)N(Cc2ccccc2)C(=O)C1C#N (centres undefined)
- T/C [12]: 98 % of control
- T/C [13]: 107 % of control
- T/C [14]: 98 % of control

SMILES: O/N=C(/c1ccccc1)c1ccc(O)cc1
- T/C (endpoint: median survival time, dose: 25.0 mg/kg/injection, schedule: Q01DX001 (ip), vehicle: saline with Tween-80): 104 % of control
- T/C (endpoint: median survival time, dose: 50.0 mg/kg/injection, schedule: Q01DX001 (ip), vehicle: saline with Tween-80): 101 % of control
- T/C (endpoint: median survival time, dose: 100.0 mg/kg/injection, schedule: Q01DX001 (ip), vehicle: saline with Tween-80): 98 % of control
- T/C (endpoint: median survival time, dose: 200.0 mg/kg/injection, schedule: Q01DX001 (ip), vehicle: saline with Tween-80): 104 % of control
- T/C (endpoint: median survival time, dose: 400.0 mg/kg/injection, schedule: Q01DX001 (ip), vehicle: saline with Tween-80): 101 % of control

SMILES: NC(=O)c1nccnc1C(N)=O
- T/C (endpoint: mean survival time, dose: 100.0 mg/kg/injection, schedule: Q01DX001 (ip), vehicle: Klucel (hydroxypropylcellulose) (HPC)): 101 % of control
- T/C (endpoint: mean survival time, dose: 200.0 mg/kg/injection, schedule: Q01DX001 (ip), vehicle: Klucel (hydroxypropylcellulose) (HPC)): 108 % of control
- T/C (endpoint: mean survival time, dose: 400.0 mg/kg/injection, schedule: Q01DX001 (ip), vehicle: Klucel (hydroxypropylcellulose) (HPC)): 101 % of control

SMILES: CC(C)N1C(=O)[N+](C)(C)N=C1[O-]
- T/C [15]: 103 % of control
- T/C [13]: 89 % of control
- T/C [16]: 101 % of control
- T/C [14]: 97 % of control
- T/C [17]: 104 % of control
- T/C [18]: 101 % of control

SMILES: N#CC1CCCC1=N (centres undefined)
- T/C [19]: 94 % of control
- T/C [20]: 97 % of control
- T/C [9]: 110 % of control
- T/C [10]: 104 % of control
- T/C [11]: 111 % of control

SMILES: CN(N=O)C(=O)NCC1OC(OC2(CO)OC(CNC(=O)N(C)N=O)C(O)C2O)C(O)C(O)C1O (centres undefined)
- T/C (endpoint: mean survival time, dose: 50.0 mg/kg/injection, schedule: Q01DX009 (ip), vehicle: saline): 119 % of control
- T/C (endpoint: mean survival time, dose: 100.0 mg/kg/injection, schedule: Q01DX009 (ip), vehicle: saline): 122 % of control
- T/C (endpoint: mean survival time, dose: 133.0 mg/kg/injection, schedule: Q01DX009 (ip), vehicle: saline): 107 % of control

SMILES: O=C(COc1ccc(Cl)cc1Cl)Nc1ccc(F)cc1
- T/C [6]: 88 % of control
- T/C [7]: 90 % of control
- T/C [8]: 89 % of control

SMILES: CCN(CC)c1ccc(C)cc1Cl
- T/C (endpoint: mean survival time, dose: 100.0 mg/kg/injection, schedule: Q04DX003 (ip), vehicle: saline sonified): 102 % of control

SMILES: O=S(=O)(Nc1ccc(O)cc1)c1ccccc1
- T/C [13]: 103 % of control
- T/C [6]: 101 % of control
- T/C [14]: 95 % of control
- T/C [7]: 103 % of control
- T/C [18]: 95 % of control
- T/C [8]: 107 % of control

SMILES: C/C(=N/Nc1ccc([N+](=O)[O-])cc1[N+](=O)[O-])C(C)C
- T/C (endpoint: mean survival time, dose: 75.0 mg/kg/injection, schedule: Q04DX002 (ip), vehicle: saline with Tween-80): 95 % of control
- T/C (endpoint: mean survival time, dose: 150.0 mg/kg/injection, schedule: Q04DX002 (ip), vehicle: saline with Tween-80): 98 % of control
- T/C (endpoint: mean survival time, dose: 300.0 mg/kg/injection, schedule: Q04DX002 (ip), vehicle: saline with Tween-80): 98 % of control

SMILES: COc1ccc(OC)c(C(=O)C[n+]2ccccc2)c1
- T/C [19]: 101 % of control
- T/C (endpoint: mean survival time, dose: 12.5 mg/kg/injection, schedule: Q04DX003 (ip), vehicle: saline): 106 % of control
- T/C [20]: 103 % of control
- T/C (endpoint: mean survival time, dose: 25.0 mg/kg/injection, schedule: Q04DX003 (ip), vehicle: saline): 109 % of control
- T/C [12]: 100 % of control
- T/C (endpoint: mean survival time, dose: 50.0 mg/kg/injection, schedule: Q04DX003 (ip), vehicle: saline): 111 % of control
